# Literature values, collected in patent publication US20030181371A1, “Compositions and methods of using collajolie” (Angiotech Pharmaceuticals, Inc., priority 2001, published 2003).
# Columns and labels:
# [1] = not given; remark: listed apart in the source
SMILES,well tolerated daily dosage [mg],other results
"CN(C)c1ccc(O)c2c1C[C@H]1C[C@H]3[C@H](N(C)C)C(O)=C(C(N)=O)C(=O)[C@@]3(O)C(O)=C1C2=O [minocycline, 7-dimethylamino-6-dimethyl-6-deoxytetracycline]",200,
CNC(=O)[C@H](Cc1ccccc1)NC(=O)[C@H](CC(C)C)[C@H](CSc1cccs1)C(=O)NO [Batimistat],,solubility [1]: highly insoluble
"C[C@H]1c2cccc(O)c2C(=O)C2=C(O)[C@]3(O)C(=O)C(C(N)=O)=C(O)[C@@H](N(C)C)[C@@H]3[C@@H](O)[C@@H]21 [doxycycline, α-6-deoxy-5-hydroxy-tetracycline]",100,
CNC(=O)[C@@H](NC(=O)[C@H](CC(C)C)[C@H](O)C(=O)NO)C(C)(C)C [Marimistat],,established well tolerated single daily dose (single daily dose): 50 mg
"CN(C)[C@@H]1C(O)=C(C(N)=O)C(=O)[C@@]2(O)C(O)=C3C(=O)c4c(O)cccc4[C@@](C)(O)C3C[C@@H]12 (stereo in doubt) [tetracycline, 4-(dimethylamino)-1,4,4a,5,5a,6,11,12a-octahydro-3,6,10,12,12a-pentahydroxy-6-methyl-1,11-dioxo-2-naphthacenecarboxamide]",1000,
